From US8524876B2, “RNAi molecule targeting thymidylate synthase and application thereof” (Delta-Fly Pharma, Inc., priority 2009, dated 2013) come the findings set out here.

This data set concerns TS mRNA. Put plainly: Inhibition of TS expression by siRNA in DLD-1/5FU cells, Taqman real-time PCR. Format: cell-based, human. Conditions: 72 hours after transfection; for effects of inhibiting TS expression (in words): siRNA 25 nM. The procedure: The DLD-1/5FU human colorectal cancer cell lines (Int. J. Oncol., 2000; 17: 277-83) that had been resported to be resistant to 5-FU were cultured in a 6-cm culture dish for 24 hours until the cells reached 50% to 60% confluence.
Subsequently, siRNA molecules (i.e., TS-siRNA1 molecules (sense strand: SEQ ID NO: 1; antisense strand: SEQ ID NO: 2), TS-siRNA2 molecules (sense strand: SEQ ID NO: 3; antisense strand: SEQ ID NO: 4), and TS-siRNA3 molecules (sense strand: SEQ ID NO: 5; antisense strand: SEQ ID NO: 6)) were chemically synthesized, and 2.5 ml of a solution containing each of the above siRNA molecules (final concentration: 25 nM) and 25 μl of TransIT-TKO Transfection Reagent (Minis) was transfected into the above cells in accordance with a conventional technique. Scrambled siRNA (TS-Scra1) was used as a negative control.
The effects of siRNA molecules on inhibition of TS expression were inspected via Taqman real-time PCR (ABI PRISM 7700 Sequence Detection System; Applied Biosystems) 72 hours after transfection. The Assays-on-Demand Gene Expression Assay Mix (assay ID Hs00426591_ml; PCR product size: 87 bp; Applied Biosystems) was used for TS primers and probes. GAPDH was used as the internal standard (Assays-on-Demand Gene Expression System; assay ID: Hs99999905_ml; PCR product size: 122 bp; Applied Biosystems).
Background: Real-time PCR tracks product formation cycle by cycle.

In the case of “TS-siRNA1: chemically synthesized siRNA targeting TS; sense strand SEQ ID NO: 1, antisense strand SEQ ID NO: 2 (sense GUAACACCAUCGAUCAUGA; antisense UCAUGAUCGAUGGUGUUAC; listed as RNA, chemistry not given here)”, the “effects on inhibition of TS expression” value (siRNA final concentration 25 nM, GAPDH internal standard) stood at 83.5±1.3%.

As to “TS-siRNA2: chemically synthesized siRNA targeting TS; sense strand SEQ ID NO: 3, antisense strand SEQ ID NO: 4 (sense GAAUACAGAGAUAUGGAAU; antisense AUUCCAUAUCUCUGUAUUC; listed as RNA, chemistry not given here)”, the “effects of inhibiting TS expression (in words)” value was “exhibited effects of inhibiting TS expression”. “TS-siRNA3: chemically synthesized siRNA targeting TS; sense strand SEQ ID NO: 5, antisense strand SEQ ID NO: 6 (sense CGAUCAUGAUGUAGAGUGU; antisense ACACUCUACAUCAUGAUCG; listed as RNA, chemistry not given here)”: the “effects of inhibiting TS expression (in words)” value is “exhibited effects of inhibiting TS expression”.
